Our source for the IC50 values is patent publication US7745446B2, “Pyrazolo[1,5-c]pyrimidines” (Bayer Schering Pharma Aktiengesellschaft, priority 2004, dated 2010).

The test system of one assay is MCF7 cells. The assay is described as follows: Cellular proliferation/cytotoxicity assay (Alamar Blue), MCF7. To be noted: Homo sapiens, MCF7, 48 h, read-out: Anti-proliferative/cytotoxic activity: IC50 MCF7. On the technique in general: The colour change of resazurin is a common sign of viable cells or microbes.
Another assay has as its system MDA-MB-468 cells. Description: Cellular proliferation/cytotoxicity assay (Alamar Blue), MDA-MB-468. To be noted: Homo sapiens, MDA-MB-468, 48 h, read-out: Anti-proliferative/cytotoxic activity: IC50 MDA468.
A further assay deals with T1, GST-ΔPH-Akt1 (Homo sapiens, UniProt P31749).
T1 construct: named GST-deltaPH-Akt1; 107-480aa; cloned in the pAcGl vector; GST (N); made in house; host or cells: SF9 insect cells (baculovirus vector pAcG1), co-expressed with PDK1
The assay is described as follows: Biochemical ΔPH Akt1 assay (flashplate, 33P incorporation into histone 2B). To be noted: 100 nM ATP, histone 2B substrate; read-out: ΔPHAkt1 inhibition: IC50. The text has this:
For the biochemical assay ΔPHAkt1 is used devoid of its PH domain as a GST fusion protein (named GST-deltaPH-Akt1; 107-480aa; cloned in the pAcGl vector (BD Biosciences Pharmingen)), co-expressed with PDK1 in SF9 insect cells. The protein is purified using glutathion-affinity chromatography by standard protocols.
In order to study the inhibition of Akt according to the invention, a flashplate-based assay has been developed.
The Akt1 assay is a biochemical assay using Akt1 devoid of its PH domain and co-expressed with PDK1 in insect cells. The GST-ΔPH-Akt1 assay is run in 96 well plates by incubating 100 ng/well GST-ΔPH-Akt1, 100 ng/well histone 2B (Roche, #223514) as substrate, 10 μl of compound of invention (test compounds were dissolved as 10 mM solutions in dimethylsulfoxide (DMSO) and subsequently diluted) and 100 nM ATP (including ^33P-ATP) in 100 μl of reaction buffer ([…], pH7,5; 3 mM MgCl2; 3 mM MnCl2; 3 μM Na-Orthovanadat; 1 mM DTT; 1 μg/ml PEG8000) for 80 minutes at 30° C. The reactions are terminated by adding 100 μl stopping buffer (2% H3PO4 for 5 minutes) and are washed 3 times by using washing buffer (0.9% NaCl). Relying on the incorporation of ^33P into the protein substrate histone 2B, the detection is based on the adhesion of the phosphorylated protein to the surface of scintillator-coated flash plates (NEN, USA; #SMP-200). This phosphorylation is measured by counting the plate for 60 sec. using a plate reader (Wallac Microbeta; Perkin Elmer, USA).

T1 sequence (P31749 107-480, stated change not applied): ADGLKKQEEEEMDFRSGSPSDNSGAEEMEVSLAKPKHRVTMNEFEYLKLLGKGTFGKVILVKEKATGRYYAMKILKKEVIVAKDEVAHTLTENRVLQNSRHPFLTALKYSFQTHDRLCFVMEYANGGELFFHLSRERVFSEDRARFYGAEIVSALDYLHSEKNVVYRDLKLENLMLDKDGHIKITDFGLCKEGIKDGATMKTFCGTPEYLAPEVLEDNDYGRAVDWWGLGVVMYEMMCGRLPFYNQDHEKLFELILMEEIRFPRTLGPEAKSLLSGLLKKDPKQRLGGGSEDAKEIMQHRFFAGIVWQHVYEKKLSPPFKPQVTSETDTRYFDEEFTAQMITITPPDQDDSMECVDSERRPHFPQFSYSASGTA
Protocol for MCF7 cells: The anti-proliferative activity of the compounds as described herein, is evaluated using MCF7 and MDA-MB-468 (ATCC HTB-22 and HTB-132) cell lines and the Alamar Blue (Resazurin) cell viability assay (O'Brien et al. Eur J Biochem 267, 5421-5426, 2000). Resazurin is reduced to the fluorescent resorufin by cellular dehydrogenase activity, correlating with viable, proliferating cells. Test compounds are dissolved as 10 mM solutions in DMSO and subsequently diluted. MCF7 or MDA-MB-434 cells were seeded into 96 well flat bottom plates at a density of 10000 cells/well (MCF7) or 5000 cells/well (MDA-MB-468) in a volume of 200 μl/well. 24 hours after seeding, 1 μl each of the compound dilutions are added into each well of the 96 well plates. Each compound dilution is tested as at least as duplicates. Wells containing untreated control cells were filled with 200 μl DMEM containing 0.5% v:v DMSO. The cells are then incubated with the substances for 48 hours at 37° C. in a humidified atmosphere containing 5% carbon dioxide. To determine cell viability, 20 μl of a Resazurin solution (Sigma; 90 mg/l) are added. After 4 hours incubation at 37° C. the fluorescence is measured at an extinction of 544 nm and an emission of 590 nm (Wallac Victor2; Perkin Elmer, USA). For the calculation of the cell viability the emission value from untreated cells is set as 100% viability and the emission rates of treated cells are set in relation to the values of untreated cells. Viabilities are expressed as % values. The corresponding IC50 values of the compounds for cytotoxic activity are determined from the concentration-effect curves by means of non-linear regression. The analysis of the data is performed using a biostatistical program (GraphPad Prism, USA).

For the compound `CN1CCN(Cc2ccc(C(=O)Nc3ccc(Nc4nc(-c5cccc(Br)c5)cc5ccnn45)cc3)cc2)CC1` [Example 2, N-{4-[5-(3-Bromo-phenyl)-pyrazolo[1,5-c]pyrimidin-7-ylamino]-phenyl}-4-(4-methyl-piperazin-1-ylmethyl)-benzamide], the IC50 in the assay with MCF7 cells is not above 16900 nM; in the assay with MDA-MB-468 cells it was not above 13600 nM.

For the compound `Nc1ccc(C(=O)Nc2ccc(Nc3nc(-c4cccc5c4oc4ccccc45)cc4ccnn34)cc2)cc1` [Example 6, 4-Amino-N-[4-(5-dibenzofuran-4-yl-pyrazolo[1,5-c]pyrimidin-7-ylamino)-phenyl]-benzamide], the IC50 at GST-ΔPH-Akt1 was not above 1750 nM.

For the compound `CC(C)(C)c1ccc(C(=O)Nc2ccc(Nc3nc(-c4cccc5c4oc4ccccc45)cc4ccnn34)cc2)cc1` [Example 10, 4-tert-Butyl-N-[4-(5-dibenzofuran-4-yl-pyrazolo[1,5-c]pyrimidin-7-ylamino)-phenyl]-benzamide], the IC50 on GST-ΔPH-Akt1 was not above 2450 nM.

Turning to `O=C(Cc1cccc(Cl)c1)Nc1ccc(Nc2nc(-c3cccc4c3oc3ccccc34)cc3ccnn23)cc1` [Example 12, 2-(3-Chloro-phenyl)-N-[4-(5-dibenzofuran-4-yl-pyrazolo[1,5-c]pyrimidin-7-ylamino) -phenyl]-acetamide], the IC50 at GST-ΔPH-Akt1 is not above 2450 nM.

Regarding `NCc1ccc(C(=O)Nc2cccc(Nc3nc(-c4cccc5c4oc4ccccc45)cc4ccnn34)c2)cc1` [Example 17, 4-Aminomethyl-N-[3-(5-dibenzofuran-4-yl-pyrazolo[1,5-c]pyrimidin-7-ylamino)-phenyl]-benzamide], the IC50 on GST-ΔPH-Akt1 was not above 1750 nM; in the assay on MCF7 cells, not above 16900 nM; in the assay on MDA-MB-468 cells it was not above 13600 nM.

As for `NCc1cccc(C(=O)Nc2cccc(Nc3nc(-c4cccc5c4oc4ccccc45)cc4ccnn34)c2)c1` [Example 18, 3-Aminomethyl-N-[3-(5-dibenzofuran-4-yl-pyrazolo[1,5-c]pyrimidin-7-ylamino)-phenyl]-benzamide], the IC50 on GST-ΔPH-Akt1 was not above 1750 nM; in the assay with MCF7 cells it was not above 16900 nM; in the assay with MDA-MB-468 cells it was not above 13600 nM.

Turning to `NCc1ccc(C(=O)Nc2ccc(Nc3nc(-c4cccc5c4oc4ccccc45)cc4ccnn34)cc2)cc1` [Example 19, 4-Aminomethyl-N-[4-(5-dibenzofuran-4-yl-pyrazolo[1,5-c]pyrimidin-7-ylamino)-phenyl]-benzamide], the IC50 on GST-ΔPH-Akt1 was not above 1750 nM; in the assay on MCF7 cells, not above 16900 nM; in the assay on MDA-MB-468 cells, not above 13600 nM.

In the case of `NCCc1ccc(C(=O)Nc2cccc(Nc3nc(-c4cccc5c4oc4ccccc45)cc4ccnn34)c2)cc1` [Example 21, 4-(2-Amino-ethyl)-N-[3-(5-dibenzofuran-4-yl-pyrazolo[1,5-c]pyrimidin-7-ylamino)-phenyl]-benzamide], the IC50 on GST-ΔPH-Akt1 is not above 1750 nM.

As for `NCCCC(=O)Nc1cccc(Nc2nc(-c3cccc4c3oc3ccccc34)cc3ccnn23)c1` [Example 22, 4-Amino-N-[3-(5-dibenzofuran-4-yl-pyrazolo[1,5-c]pyrimidin-7-ylamino)-phenyl]-butyramide], the IC50 at GST-ΔPH-Akt1 was not above 1750 nM.

With `NCc1ccc(C(=O)Nc2ccc(Nc3nc(-c4ccc5cc(O)ccc5c4)cc4ccnn34)cc2)cc1` [Example 44, 4-Aminomethyl-N-{4-[5-(6-hydroxy-naphthalen-2-yl)-pyrazolo[1,5-c]pyrimidin-7-ylamino]-phenyl}-benzamide], on GST-ΔPH-Akt1, the IC50 is not above 1750 nM.

Turning to `NCc1ccc(C(=O)Nc2ccc(Nc3nc(-c4cccc(-c5ccccc5)c4)cc4ccnn34)cc2)cc1` [Example 71, 4-Aminomethyl-N-[4-(5-biphenyl-3-yl-pyrazolo[1,5-c]pyrimidin-7-ylamino)-phenyl]-benzamide], at GST-ΔPH-Akt1, the IC50 was not above 2450 nM.

Regarding `COc1ccc(-c2cccc(-c3cc4ccnn4c(Nc4ccc(NC(=O)c5ccc(CN)cc5)cc4)n3)c2)cc1` [Example 72, 4-Aminomethyl-N-{4-[5-(4′-methoxy-biphenyl-3-yl)-pyrazolo[1,5-c]pyrimidin-7-ylamino]-phenyl}-benzamide], at GST-ΔPH-Akt1, the IC50 is not above 1750 nM.

In the case of `CC(=O)Nc1cccc(-c2cccc(-c3cc4ccnn4c(Nc4ccc(NC(=O)c5ccc(CN)cc5)cc4)n3)c2)c1` [Example 73, N-{4-[5-(3′-Acetylamino-biphenyl-3-yl)-pyrazolo[1,5-c]pyrimidin-7-ylamino]-phenyl}-4-aminomethyl-benzamide], the IC50 on GST-ΔPH-Akt1 is not above 2450 nM.

Consider `COc1cccc(-c2cccc(-c3cc4ccnn4c(Nc4ccc(NC(=O)c5ccc(CN)cc5)cc4)n3)c2)c1` [Example 74, 4-Aminomethyl-N-{4-[5-(3′-methoxy-biphenyl-3-yl)-pyrazolo[1,5-c]pyrimidin-7-ylamino]-phenyl}-benzamide], for which the IC50 at GST-ΔPH-Akt1 is not above 2450 nM.

Turning to `NCCc1ccc(C(=O)Nc2ccc(Nc3nc(-c4ccc(-c5ccc(F)cc5)cc4)cc4ccnn34)cc2)cc1` [Example 75, 4-(2-Amino-ethyl)-N-{4-[5-(4′-fluoro-biphenyl-4-yl)-pyrazolo[1,5-c]pyrimidin-7-ylamino]-phenyl}-benzamide], the IC50 at GST-ΔPH-Akt1 was not above 1750 nM.

For `O=C(Nc1ccc(Nc2nc(-c3ccc(-c4ccc(F)cc4)cc3)cc3ccnn23)cc1)c1ccc2c(c1)CCNC2` [Example 76, 1,2,3,4-Tetrahydro-isoquinoline-6-carboxylic acid {4-[5-(4′-fluoro-biphenyl-4-yl)-pyrazolo[1,5-c]pyrimidin-7-ylamino]-phenyl}amide], at GST-ΔPH-Akt1, the IC50 was not above 1750 nM.

`COc1cccc(-c2ccc(-c3cc4ccnn4c(Nc4ccc(NC(=O)c5ccc6c(c5)CCNC6)cc4)n3)cc2)c1` [Example 77, 1,2,3,4-Tetrahydro-isoquinoline-6-carboxylic acid {4-[5-(3′-methoxy-biphenyl-4-yl)-pyrazolo[1,5-c]pyrimidin-7-ylamino]-phenyl}amide]: the IC50 at GST-ΔPH-Akt1 was not above 1750 nM.

For `CC(=O)Nc1cccc(-c2ccc(-c3cc4ccnn4c(Nc4ccc(NC(=O)c5ccc(CCN)cc5)cc4)n3)cc2)c1` [Example 82, N-{4-[5-(3′-Acetylamino-biphenyl-4-yl)-pyrazolo[1,5-c]pyrimidin-7-ylamino]-phenyl}-4-(2-amino-ethyl)-benzamide], the IC50 on GST-ΔPH-Akt1 is not above 1750 nM.

`CC(=O)Nc1cccc(-c2ccc(-c3cc4ccnn4c(Nc4ccc(NC(=O)c5ccc6c(c5)CCNC6)cc4)n3)cc2)c1` [Example 83, 1,2,3,4-Tetrahydro-isoquinoline-6-carboxylic acid {4-[5-(3′-acetylamino-biphenyl-4-yl)-pyrazolo[1,5-c]pyrimidin-7-ylamino]-phenyl}-amide]: the figures for the IC50 with MCF7 cells and in the assay on MDA-MB-468 cells were not above 16900 nM and not above 13600 nM, respectively.

With `NCCc1ccc(C(=O)Nc2ccc(Nc3nc(-c4ccc(Br)cc4)cc4ccnn34)cc2)cc1` [Example 84, 4-(2-Amino-ethyl)-N-{4-[5-(4-bromo-phenyl)-pyrazolo[1,5-c]pyrimidin-7-ylamino]-phenyl}-benzamide], the IC50 at GST-ΔPH-Akt1 was not above 1750 nM.

Consider `COc1cccc(-c2ccc(-c3cc4c(Br)cnn4c(Nc4ccc(NC(=O)c5ccc(CCN)cc5)cc4)n3)cc2)c1` [Example 86, 4-(2-Amino-ethyl)-N-{4-[3-bromo-5-(3′-methoxy-biphenyl-4-yl)-pyrazolo[1,5-]pyrimidin-7-ylamino]-phenyl}-benzamide], for which the IC50 on GST-ΔPH-Akt1 is not above 1750 nM.

On to `COc1ccc(-c2ccc(-c3cc4c(Br)cnn4c(Nc4ccc(NC(=O)c5ccc(CN)cc5)cc4)n3)cc2)cc1` [Example 88, 4-Aminomethyl-N-{4-[3-bromo-5-(4′-methoxy-biphenyl-4-yl)-pyrazolo[1,5-c]pyrimidin-7-ylamino]-phenyl}-benzamide], for which the IC50 on GST-ΔPH-Akt1 was not above 1750 nM.

Regarding `NCc1ccc(C(=O)Nc2ccc(Nc3nc(-c4ccc(-c5ccc(F)cc5)cc4)cc4c(Br)cnn34)cc2)cc1` [Example 89, 4-Aminomethyl-N-{4-[3-bromo-5-(4′-fluoro-biphenyl-4-yl)-pyrazolo[1,5-c]pyrimidin-7-ylamino]-phenyl}-benzamide], the IC50 at GST-ΔPH-Akt1 is not above 1750 nM.

As for `CC(=O)Nc1cccc(-c2ccc(-c3cc4c(Br)cnn4c(Nc4ccc(NC(=O)c5ccc(CN)cc5)cc4)n3)cc2)c1` [Example 90, N-{4-[5-(3′-Acetylamino-biphenyl-4-yl)-3-bromo-pyrazolo[1,5-c]pyrimidin-7-ylamino]-phenyl}-4-aminomethyl-benzamide], the IC50 at GST-ΔPH-Akt1 was not above 1750 nM.

Consider `NCc1ccc(C(=O)Nc2ccc(Nc3nc(-c4cccc5c4oc4ccccc45)cc4c(Br)cnn34)cc2)cc1` [Example 91, 4-Aminomethyl-N-[4-(3-bromo-5-dibenzofuran-4-yl-pyrazolo[1,5-c]pyrimidin-7-ylamino) -phenyl]-benzamide], for which the IC50 at GST-ΔPH-Akt1 is not above 1750 nM.
